Tests used:
[1] = Stability of cisatracurium salt in different eluent mixtures (HPLC assay of isomer content over time); assay type: physicochemical; conditions: for % of the 1R-cis,1′R-cis isomer in the eluent composition: room temperature
Method: Table 6 illustrates how the amount of the 1R-cis,1′R-cis isomer changes at room temperature as a function of time in 3 different eluent mixtures. The (1R,1′R)-atracurium besylate isomer mixture was dissolved in the eluent and the resulting solutions were allowed to stand at room temperature for a period of 26 hours. After certain time intervals, as specified in Table 6, samples were withdrawn from each one of the 3 solutions and assayed by HPLC to determine the amount of the 1R-cis,1′R-cis isomer in the mixture.
The stability of the cisatracurium salt in the eluent mixture at 25° C. is presented in FIG. 1 whereby two plots are compared, that is, the plot describing the stability of the 1R-cis,1′R-cis isomer in the eluent mixture of 80:10:10 dichloromethane:DMSO:formic acid of the present invention (Column A in Table 6) vs. the plot of the dichloromethane:MeOH:benzenesulfonic acid eluent system, described in U.S. Pat. No. 5,556,978, example 2 (Column C in Table 6).

[2] = cited from earlier work

change of the content of the 1R-cis,1′R-cis isomer in the eluent mixture ([1]; dichloromethane:DMSO:formic acid eluent mixture, after 26 hours): remains unchanged
decrease of the content of the 1R-cis,1′R-cis isomer in the eluent mixture ([1]; dichloromethane:methanol:benzenesulfonic acid eluent (U.S. 5,556,978, example 2), after 26 hours at room temperature): more than 3%
% of the 1R-cis,1′R-cis isomer in the eluent composition ([1]; eluent A dichloromethane:DMSO:formic acid 80:10:10, 0 hours): 55.1%
% of the 1R-cis,1′R-cis isomer in the eluent composition ([1]; eluent A dichloromethane:DMSO:formic acid 80:10:10, 2 hours): 55.4%
% of the 1R-cis,1′R-cis isomer in the eluent composition ([1]; eluent A dichloromethane:DMSO:formic acid 80:10:10, 11 hours): 55.2%
% of the 1R-cis,1′R-cis isomer in the eluent composition ([1]; eluent A dichloromethane:DMSO:formic acid 80:10:10, 12 hours): 55.1%
% of the 1R-cis,1′R-cis isomer in the eluent composition ([1]; eluent A dichloromethane:DMSO:formic acid 80:10:10, 24 hours): 55.3%
% of the 1R-cis,1′R-cis isomer in the eluent composition ([1]; eluent A dichloromethane:DMSO:formic acid 80:10:10, 26 hours): 55.4%
% of the 1R-cis,1′R-cis isomer in the eluent composition ([1]; eluent B dichloromethane:DMSO:benzenesulfonic acid 90:10:0.006, 0 hours): 55.3%
% of the 1R-cis,1′R-cis isomer in the eluent composition ([1]; eluent B dichloromethane:DMSO:benzenesulfonic acid 90:10:0.006, 2 hours): 55.3%
% of the 1R-cis,1′R-cis isomer in the eluent composition ([1]; eluent B dichloromethane:DMSO:benzenesulfonic acid 90:10:0.006, 11 hours): 55.3%
% of the 1R-cis,1′R-cis isomer in the eluent composition ([1]; eluent B dichloromethane:DMSO:benzenesulfonic acid 90:10:0.006, 12 hours): 55.3%
% of the 1R-cis,1′R-cis isomer in the eluent composition ([1]; eluent B dichloromethane:DMSO:benzenesulfonic acid 90:10:0.006, 24 hours): 55.3%
% of the 1R-cis,1′R-cis isomer in the eluent composition ([1]; eluent B dichloromethane:DMSO:benzenesulfonic acid 90:10:0.006, 26 hours): 55.2%
% of the 1R-cis,1′R-cis isomer in the eluent composition ([1]; eluent C dichloromethane:methanol:benzenesulfonic acid 4000:500:0.5, 0 hours): 55.3%
% of the 1R-cis,1′R-cis isomer in the eluent composition ([1]; eluent C dichloromethane:methanol:benzenesulfonic acid 4000:500:0.5, 2 hours): 54.9%
% of the 1R-cis,1′R-cis isomer in the eluent composition ([1]; eluent C dichloromethane:methanol:benzenesulfonic acid 4000:500:0.5, 11 hours): 53.4%
% of the 1R-cis,1′R-cis isomer in the eluent composition ([1]; eluent C dichloromethane:methanol:benzenesulfonic acid 4000:500:0.5, 12 hours): 53.7%
% of the 1R-cis,1′R-cis isomer in the eluent composition ([1]; eluent C dichloromethane:methanol:benzenesulfonic acid 4000:500:0.5, 24 hours): 52.6%
% of the 1R-cis,1′R-cis isomer in the eluent composition ([1]; eluent C dichloromethane:methanol:benzenesulfonic acid 4000:500:0.5, 26 hours): 52.0%
SMILES: COc1ccc(C[C@@H]2c3cc(OC)c(OC)cc3CC[N@+]2(C)CCC(=O)OCCCCCOC(=O)CC[N@@+]2(C)CCc3cc(OC)c(OC)cc3[C@H]2Cc2ccc(OC)c(OC)c2)cc1OC [1R-cis,1′R-cis isomer, (1R,1′R,2R,2′R)-2,2′-[1,5-pentanediylbis[oxy(3-oxo-3,1-propanediyl)]]bis[1-[(3,4-dimethoxyphenyl)methyl]-1,2,3,4-tetrahydro-6,7-dimethoxy-2-methyl-isoquinolinium dibenzenesulfonate]
rate of loss in potency ([2]; at 25° C. (77° F.)): approximately 5 % per month
rate of loss of potency ([2]; under refrigeration (5° C.)): approximately 5 % per year
